In the oligonucleotide strings, read from the 5' end, every base follows the letter of its sugar. An asterisk marks phosphorothioate; unmarked linkages are phosphodiester. Other units and linkages are bracketed, terminal groups are in braces. A string of capitals states the bases alone. e = 2'-O-(2-methoxyethyl) (MOE); [5mC] = 5-methylcytosine; d = 2'-deoxy (DNA)
How the values were obtained:
[1] = tested on: human apolipoprotein B mRNA; test: Apolipoprotein B mRNA in primary human hepatocytes, real-time PCR; format: cell-based; conditions: for apolipoprotein B mRNA expression: 5, 10, 50 or 150 nM
Experimental: In accordance with the present invention, antisense oligonucleotides targeted to human apolipoprotein B were tested in dose response studies in primary human hepatocytes. Pre-plated primary human hepatocytes were purchased from Invitro Technologies (Baltimore, Md.). Cells were cultured in high-glucose DMEM (Invitrogen Corporation, Carlsbad, Calif.) supplemented with 10% fetal bovine serum (Invitrogen Corporation, Carlsbad, Calif.), 100 units/mL and 100 μg/mL streptomycin (Invitrogen Corporation, Carlsbad, Calif.).
Human primary hepatocytes were treated with ISIS 301012 (SEQ ID NO: 247) at 10, 50, 150 or 300 nM. Untreated cells and cells treated with the scrambled control oligonucleotide ISIS 113529 ([…], SEQ ID NO: 859) served as two groups of control cells. ISIS 113529 is a chimeric oligonucleotide (“gapmer”) 20 nucleotides in length, composed of a central “gap” region consisting of ten 2′-deoxynucleotides, which is flanked on both sides (5′ and 3′ directions) by five-nucleotide “wings”. The wings are composed of 2′-methoxyethyl (2′-MOE)nucleotides. The internucleoside (backbone) linkages are phosphorothioate (P═S) throughout the oligonucleotide. All cytidines are 5-methylcytidines.
(§1) Oligonucleotides were introduced into cells through LIPOFECTIN-mediated transfection as described by other examples herein. Cells were harvested both 24 and 48 hours after treatment with oligonucleotide, and both RNA and protein were isolated. Additionally, the culture media from treated cells was collected for ELISA analysis of apolipoprotein B protein secretion.
Apolipoprotein B mRNA expression was determined by real-time PCR of RNA samples as described by other examples herein. Each result represents 6 experiments.
(§2) An additional experiment was performed to test the effects of ISIS 271009 (SEQ ID NO: 319), ISIS 281625 (SEQ ID NO: 224) and ISIS 301027 (SEQ ID NO: 262) on human apolipoprotein B mRNA in human primary hepatocytes. Cells were cultured as described herein and treated with 5, 10, 50 or 150 nM of ISIS 271009, ISIS 281625 or ISIS 301027 for a period of 24 hours. The control oligonucleotides ISIS 13650 (SEQ ID NO: 806) and ISIS 113529 (SEQ ID NO: 859) were used at 50 or 150 nM. Human apolipoprotein B mRNA expression was evaluated by real-time PCR as described by other examples herein. Apolipoprotein B protein secreted into the cultured cell media was measured in the samples treated with 50 and 150 nM of oligonucleotide, using a target protein specific ELISA kit (ALerCHEK Inc., Portland, Me.).

apolipoprotein B protein = test: Apolipoprotein B protein secreted from primary human hepatocytes, ELISA; format: cell-based
Experimental: as §1
Apolipoprotein secreted from into the cultured cell media was measured in the samples treated with 50 and 150 nM of oligonucleotide, using a target protein specific ELISA kit (ALerCHEK Inc., Portland, Me.). Each result represents 3 experiments.
as §2

[2] = tested on: human apolipoprotein B mRNA; test: Inhibition of apolipoprotein B mRNA by dsRNAs in HepG2 cells; format: cell-based; conditions: 150 nM with 3.75 μg/mL LIPOFECTIN
Experimental: In accordance with the present invention, a series of nucleic acid duplexes comprising the antisense compounds of the present invention and their complements were designed to target apolipoprotein B and are shown in Table 42. All compounds in Table 42 are oligoribonucleotides 20 nucleotides in length with phosphodiester internucleoside linkages (backbones) throughout the compound. The compounds were prepared with blunt ends. […] These sequences are shown to contain uracil (U) but one of skill in the art will appreciate that uracil (U) is generally replaced by thymine (T) in DNA sequences. “Targer site” indicates the first (5′-most) nucleotide number on the particular target sequence to which the compound binds. A subset of the compounds in Table 42 are the RNA equivalents of DNA antisense oligonucleotides described herein, and, where applicable, this is noted by the ISIS # of the DNA oligonucleotide in the column “RNA equivalent of ISIS #”.
The dsRNA compounds in Table 42 were tested for their effects on human apolipoprotein mRNA in HepG2 cells. HepG2 cells were treated with 100 nM of dsRNA compounds mixed with 5 μg/mL LIPOFECTIN (Invitrogen Corporation, Carlsbad, Calif.) for a period of 16 hours. In the same experiment, HepG2 cells were also treated with 150 nM of subset of the antisense oligonucleotides described herein mixed with 3.75 μg/mL LIPOFECTIN; these compounds are listed in Table 43. Control oligonucleotides included ISIS 18078 ([…], SEQ ID NO: 888). ISIS 18078 is a chimeric oligonucleotide (“gapmer”) 20 nucleotides in length, composed of a central “gap” region consisting of 9 2′-deoxynucleotides, which is flanked on the 5′ and 3′ ends by a five-nucleotide “wing” and a six-nucleotide “wing”, respectively. The wings are composed of 2′-methoxyethyl (2′-MOE)nucleotides. The internucleoside (backbone) linkages are phosphorothioate (P═S) throughout the oligonucleotide. All cytidines are 5-methylcytidines. The duplex of ISIS 263188 ([…], SEQ ID NO: 889) and its complement was also used as a control. ISIS 263188 is an oligoribonucleotide 21 nucleotides in length with the 2 nucleotides on the 3′ end being oligodeoxyribonucleotides (TT) and with phosphodiester internucleoside linkages (backbones) throughout the compound.
Cells were treated for 4 hours, after which human apolipoprotein B mRNA expression was measured as described by examples herein. Results were normalized to untreated control cells, which were not treated with LIPOFECTIN or oligonucleotide.

[3] = C57BL/6NTac-TgN(APOB100) transgenic mice (Example 47): liver enzyme, cholesterol, LDL-cholesterol and triglyceride levels; format: in vivo, mouse; conditions: C57BL/6NTac-TgN(APOB100) mice, 25 mg/kg i.p. twice a week, eight weeks; for AST and ALT levels: normal levels ~300 IU/L
Experimental: C57BL/6NTac-TgN(APOB100) mice were divided into two groups—one group receiving oligonucleotide treatment and control animals receiving saline treatment. After overnight fasting, mice were dosed intraperitoneally twice a week with saline or 25 mg/kg ISIS 281625 (SEQ ID No: 224) or ISIS 301012 (SEQ ID No: 247) for eight weeks. At study termination and forty eight hours after the final injections, animals were sacrificed and evaluated for target mRNA levels in liver, cholesterol and triglyceride levels, and liver enzyme levels. In addition, the endogenous mouse apolipoprotein B levels in liver were measured to evaluate any effects of these antisense oligonucletides targeted to the human apolipoprotein B.

[4] = 5 nM, 24 hours, "+" = expression increased
[5] = 150 nM, 24 hours, "+" = increased

## 113529 (antisense e[5mC]*eT*e[5mC]*eT*eT*dA*d[5mC]*dT*dG*dT*dG*d[5mC]*dT*dG*dT*eG*eG*eA*e[5mC]*eA) [compound 113529]
[1]; 150 nM, 24 hours
  % Inhibition of apolipoprotein B mRNA: 16%
[1]; 150 nM, 48 hours
  % Inhibition of apolipoprotein B mRNA: 5%
[1]; 300 nM, 24 hours
  % Inhibition of apolipoprotein B mRNA: 10%
[1]; 300 nM, 48 hours
  % Inhibition of apolipoprotein B mRNA: 18%
Apolipoprotein B protein; 150 nM, 24 hours
  % Change in apolipoprotein B protein secretion: +6%
Apolipoprotein B protein; 150 nM, 48 hours
  % Change in apolipoprotein B protein secretion: +4%

## 281625 (antisense eA*eG*eG*eT*eT*dA*d[5mC]*d[5mC]*dA*dG*d[5mC]*d[5mC]*dA*d[5mC]*dA*eT*eG*e[5mC]*eA*eG) [compound 281625]
[2]
  % Inhibition of apolipoprotein B mRNA: 79%
[3]
  Lipoproteins CHOL: 152.0 mg/dL
  Lipoproteins HDL: 84.6 mg/dL
  Lipoproteins LDL: 49.8 mg/dL
  Lipoproteins TRIG: 171.1 mg/dL
  Liver Enzymes ALT: 363.8 IU/L
  Liver Enzymes AST: 265.8 IU/L

## 301012 (eG*e[5mC]*e[5mC]*eT*e[5mC]*dA*dG*dT*d[5mC]*dT*dG*d[5mC]*dT*dT*d[5mC]*eG*e[5mC]*eA*e[5mC]*e[5mC]) [compound 301012]
[1]; 10 nM, 24 hours
  % Inhibition of apolipoprotein B mRNA: 65%
[1]; 10 nM, 48 hours
  % Inhibition of apolipoprotein B mRNA: 33%
[1]; 50 nM, 24 hours
  % Inhibition of apolipoprotein B mRNA: 75%
[1]; 50 nM, 48 hours
  % Inhibition of apolipoprotein B mRNA: 48%
[1]; 150 nM, 24 hours
  % Inhibition of apolipoprotein B mRNA: 90%
[1]; 150 nM, 48 hours
  % Inhibition of apolipoprotein B mRNA: 78%
[1]; 300 nM, 24 hours
  % Inhibition of apolipoprotein B mRNA: 89%
[1]; 300 nM, 48 hours
  % Inhibition of apolipoprotein B mRNA: 72%
Apolipoprotein B protein; 150 nM, 24 hours
  % Change in apolipoprotein B protein secretion: −57%
Apolipoprotein B protein; 150 nM, 48 hours
  % Change in apolipoprotein B protein secretion: −75%
[2]
  % Inhibition of apolipoprotein B mRNA: 77%
[3]
  Lipoproteins CHOL: 145.1 mg/dL
  Lipoproteins HDL: 98.6 mg/dL
  Lipoproteins LDL: 36.6 mg/dL
  Lipoproteins TRIG: 157.8 mg/dL
  Liver Enzymes ALT: 137.4 IU/L
  Liver Enzymes AST: 208.4 IU/L

## 301027 (eG*e[5mC]*eT*e[5mC]*eA*d[5mC]*dT*dG*dT*dA*dT*dG*dG*dT*dT*eT*eT*eA*eT*e[5mC]; antisense) [compound 301027]
[2]
  % Inhibition of apolipoprotein B mRNA: 79%

## ISIS 281625: SEQ ID NO: 224, 2′-MOE gapmer targeted to human apolipoprotein B (antisense eA*eG*eG*eT*eT*dA*d[5mC]*d[5mC]*dA*dG*d[5mC]*d[5mC]*dA*d[5mC]*dA*eT*eG*e[5mC]*eA*eG)
[1]; [4]
  % Inhibition of apolipoprotein B mRNA expression: 8%
[1]; 10 nM, 24 hours (Table 37)
  % Inhibition of apolipoprotein B mRNA expression: 22%
[1]; 50 nM, 24 hours (Table 37)
  % Inhibition of apolipoprotein B mRNA expression: 49%
[1]; 150 nM, 24 hours (Table 37)
  % Inhibition of apolipoprotein B mRNA expression: 52%
[1]; 24 hours
  apolipoprotein B mRNA expression: inhibit apolipoprotein B mRNA expression in a dose-dependent manner
Apolipoprotein B protein; 50 nM, 24 hours
  % Inhibition of apolipoprotein B protein secretion: 18%
Apolipoprotein B protein; [5]
  % Inhibition of apolipoprotein B protein secretion: 18%
[3]
  Cholesterol levels relative to saline treatment: slightly increased
  triglyceride levels relative to saline treatment: slightly decreased
  AST and ALT levels: increased, yet did not exceed normal levels

## ISIS 301012: SEQ ID NO: 247, antisense oligonucleotide targeted to human apolipoprotein B (antisense GCCTCAGTCTGCTTCGCACC; chemistry not given here)
[1]; 10, 50, 150 or 300 nM, 24 and 48 hours
  apolipoprotein B expression (mRNA): inhibits apolipoprotein B expression in a dose-dependent manner
[3]
  Cholesterol levels relative to saline treatment: slightly increased
  triglyceride levels relative to saline treatment: slightly decreased
  AST and ALT levels: increased, yet did not exceed normal levels

## ISIS 301027: SEQ ID NO: 262, 2′-MOE gapmer targeted to human apolipoprotein B (antisense eG*e[5mC]*eT*e[5mC]*eA*d[5mC]*dT*dG*dT*dA*dT*dG*dG*dT*dT*eT*eT*eA*eT*e[5mC])
[1]; [4]
  % Inhibition of apolipoprotein B mRNA expression: 11%
[1]; 10 nM, 24 hours (Table 37)
  % Inhibition of apolipoprotein B mRNA expression: 37%
[1]; 50 nM, 24 hours (Table 37)
  % Inhibition of apolipoprotein B mRNA expression: 50%
[1]; 150 nM, 24 hours (Table 37)
  % Inhibition of apolipoprotein B mRNA expression: 70%
[1]; 24 hours
  apolipoprotein B mRNA expression: inhibit apolipoprotein B mRNA expression in a dose-dependent manner
Apolipoprotein B protein; 50 nM, 24 hours
  % Inhibition of apolipoprotein B protein secretion: 21%
Apolipoprotein B protein; [5]
  % Inhibition of apolipoprotein B protein secretion: 32%
Apolipoprotein B protein; 50 and 150 nM
  secretion of apolipoprotein B protein from cells (ELISA): inhibit the secretion of apolipoprotein B protein from cells in a dose-dependent manner
